These compounds were tested against T1, GRK2 (Homo sapiens, UniProt P25098) (assay: biochemical). Conditions: GRK2 IC50 (μM), 10 nM GRK2; 10 uM ATP.
T1 sequence (P25098 1-689): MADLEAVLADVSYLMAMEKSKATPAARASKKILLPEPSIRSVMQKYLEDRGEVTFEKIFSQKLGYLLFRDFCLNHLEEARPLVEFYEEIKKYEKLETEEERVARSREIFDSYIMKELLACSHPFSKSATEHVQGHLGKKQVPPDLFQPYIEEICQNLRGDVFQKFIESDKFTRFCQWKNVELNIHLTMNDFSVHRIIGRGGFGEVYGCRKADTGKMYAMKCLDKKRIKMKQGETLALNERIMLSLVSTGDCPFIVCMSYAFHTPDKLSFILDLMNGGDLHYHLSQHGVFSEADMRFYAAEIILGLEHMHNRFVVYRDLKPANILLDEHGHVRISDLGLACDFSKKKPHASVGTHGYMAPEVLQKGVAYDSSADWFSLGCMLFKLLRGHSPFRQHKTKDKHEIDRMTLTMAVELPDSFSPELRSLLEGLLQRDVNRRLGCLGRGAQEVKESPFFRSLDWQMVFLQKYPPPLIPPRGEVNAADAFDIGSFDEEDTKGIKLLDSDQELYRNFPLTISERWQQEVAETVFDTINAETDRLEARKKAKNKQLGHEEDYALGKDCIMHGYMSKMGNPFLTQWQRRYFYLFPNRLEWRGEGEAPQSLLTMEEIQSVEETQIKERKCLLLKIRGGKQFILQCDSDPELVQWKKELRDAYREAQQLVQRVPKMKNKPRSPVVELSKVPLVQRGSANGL
Protocol: Positive and negative control wells received an equal volume of DMSO. The final DMSO concentration in the assay is 1%.
The plate was placed in centrifuge equipped with a spin-bucket rotor and spun for 1 min at 1000 rpm.
GRK2 enzymatic reactions were initiated with the addition of 2 μL/well of 50 nM GRK2 in assay buffer. Plates were centrifuged for 1 min at 1000 rpm. For negative control wells, the order of reagent addition was reversed: 10 μL/well ADP detection mix (see below) was added first, followed by the addition of 2 μL/well of the GRK2 solution. Reaction mixtures were incubated at ambient temperature for 2 hours.
Following incubation, the reactions were quenched with 10 μL/well of the Transcreener ADP detection mix. […] The plates were then centrifuged for 1 min at 1000 rpm.
Fluorescence polarization values of the reaction mixtures were read on a Safire II plate reader after a 60 min incubation at ambient temperature. Excitation wavelength=590 nm; emission wavelength=650 nm.
The fluorescence polarization data were converted to % activity as follows:
% activity=(sample−NC)/(PC−NC)*100
where NC is the mean of negative control (ADP detection mix added prior to GRK2 addition), and PC is the mean of positive control (GRK2 reaction without inhibitor). IC50 values are determined from a 4-parameter fit, using the following equation:
Y=Bottom+(Top−Bottom)/(1+10^((Log IC50-X)*Hill slope)),
where X=log10 of the compound concentration.

Going from `O=C(NCc1ccc(F)cc1)c1cc(Cn2cnc3ccc(-c4cn[nH]c4)cc3c2=O)ccn1` [Compound C5, N-[(4-Fluorophenyl)methyl]-4-[[4-oxo-6-(1H-pyrazol-4-yl)quinazolin-3-yl]methyl]pyridine-2-carboxamide] to `O=C(NCc1ccc(F)cc1)c1cccc(Cn2cnc3ccc(-c4cn[nH]c4)c(F)c3c2=O)c1` [Compound 57, 3-[[5-Fluoro-4-oxo-6-(1H-pyrazol-4-yl)quinazolin-3-yl]methyl]-N-[(4-fluorophenyl)methyl]benzamide], the IC50 falls from 0.212 µM to under 0.01 µM.

Going from `CC(c1cccc(NS(C)(=O)=O)c1)n1cnc2ccc(-c3cn[nH]c3)cc2c1=O` (stereo not drawn) [Compound 33, N-[3-[1-[4-Oxo-6-(1H-pyrazol-4-yl)quinazolin-3-yl]ethyl]phenyl]methanesulfonamide] to `CC(c1cccc(O)c1)n1cnc2ccc(-c3cn[nH]c3)cc2c1=O` (stereo not drawn) [Compound 31, 3-[1-(3-Hydroxyphenyl)ethyl]-6-(1H-pyrazol-4-yl)quinazolin-4-one], the IC50 falls from 0.033 µM to 0.008 µM (4.1-fold). The second is the more potent here.

Going from `COc1cccc(Cn2cnc3ccc(-c4ccnc(N)n4)cc3c2=O)c1` [Compound 45, 6-(2-Aminopyrimidin-4-yl)-3-[(3-methoxyphenyl)methyl]quinazolin-4-one] to `O=c1c2cc(-c3cn[nH]c3)ccc2ncn1Cc1cccc(-c2ncco2)c1` [Compound 28, 3-(3-(Oxazol-2-yl)benzyl)-6-(1H-pyrazol-4-yl)quinazolin-4(3H)-one], the IC50 rises from 0.271 µM to 0.446 µM (1.6-fold).

First: O=c1c2cc(-c3ccc(F)nc3)ccc2ncn1Cc1ccccc1 [Compound 82, 3-Benzyl-6-(6-fluoro-3-pyridyl)quinazolin-4-one]
Second: CC(=O)c1cccc(Cn2cnc3ccc(-c4cn[nH]c4)cc3c2=O)c1 [Compound 41, 3-[(3-Acetylphenyl)methyl]-6-(1H-pyrazol-4-yl)quinazolin-4-one]
The IC50 of the first is higher: over 100 µM for the first, 0.065 µM for the second.

Going from `NS(=O)(=O)c1cccc(Cn2cnc3ccc(-c4cn[nH]c4)cc3c2=O)c1` [Compound 34, 3-[[4-Oxo-6-(1H-pyrazol-4-yl)quinazolin-3-yl]methyl]benzenesulfonamide] to `O=c1c2cc(-c3cn[nH]c3)ccc2ncn1Cc1c(F)cccc1F` [Compound 78, 3-[(2,6-Difluorophenyl)methyl]-6-(1H-pyrazol-4-yl)quinazolin-4-one], the IC50 rises from 0.03 µM to 0.801 µM (27-fold). The first is the more potent here.

`[2H]C([2H])(Oc1cccc([C@@H](C)n2cnc3ccc(-c4cn[nH]c4)cc3c2=O)c1)C(=O)O` [Compound 26, 2,2-Dideuterio-2-[3-[(1R)-1-[4-oxo-6-(1H-pyrazol-4-yl)quinazolin-3-yl]ethyl]phenoxy]acetic Acid] and `CC(c1cccc(C(=O)NC2CN(C)C2)c1)n1cnc2ccc(-c3cn[nH]c3)cc2c1=O` (stereo not drawn) [Compound 24, N-(1-Methylazetidin-3-yl)-3-[1-[4-oxo-6-(1H-pyrazol-4-yl)quinazolin-3-yl]ethyl]benzamide] are within 1.5-fold of each other in IC50: 0.143 µM for the first, 0.096 µM for the second.

Reference: patent US20220267298A1 (priority 2019, published 2022)
